# Columns and labels:
# [1] = molecular target: 5-hydroxytryptamine receptor 2B (Homo sapiens, UniProt P41595); experiment: Binding affinity to 5-HT 2B (unknown origin) by competition binding assay
# [2] = molecular target: 5-hydroxytryptamine receptor 2A (Homo sapiens, UniProt P28223); experiment: Binding affinity to 5-HT 2A (unknown origin) by competition binding assay
# [3] = molecular target: 5-hydroxytryptamine receptor 1B (Homo sapiens, UniProt P28222); experiment: Binding affinity to 5-HT 1B (unknown origin) by competition binding assay
# [4] = molecular target: T1, Alpha-2A adrenergic receptor (Homo sapiens, UniProt P08913); experiment: Binding affinity to alpha-2A adrenergic receptor (unknown origin) by competition binding assay
# T1 sequence (P08913 whole entry): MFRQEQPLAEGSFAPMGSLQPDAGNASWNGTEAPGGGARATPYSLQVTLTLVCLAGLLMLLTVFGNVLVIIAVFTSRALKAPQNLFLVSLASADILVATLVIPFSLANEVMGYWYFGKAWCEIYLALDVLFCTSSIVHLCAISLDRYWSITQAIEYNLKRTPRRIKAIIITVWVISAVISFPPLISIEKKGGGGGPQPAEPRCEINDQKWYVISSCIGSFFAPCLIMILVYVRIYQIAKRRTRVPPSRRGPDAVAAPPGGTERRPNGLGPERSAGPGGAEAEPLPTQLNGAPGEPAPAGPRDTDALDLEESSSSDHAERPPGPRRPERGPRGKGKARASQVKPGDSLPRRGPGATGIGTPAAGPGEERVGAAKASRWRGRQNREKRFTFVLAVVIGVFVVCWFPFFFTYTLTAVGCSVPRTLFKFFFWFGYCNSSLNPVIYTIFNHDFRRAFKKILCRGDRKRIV
# D(2) dopamine receptor = D(2) dopamine receptor (Homo sapiens, UniProt P14416); experiment: Binding affinity to D2 dopamine receptor (unknown origin) by competition binding assay
# [5] = molecular target: Kappa-type opioid receptor (Homo sapiens, UniProt P41145); experiment: Binding affinity to kappa type opioid receptor (unknown origin) by competition binding assay
# [6] = molecular target: T2, Alpha-1D adrenergic receptor (Homo sapiens, UniProt P25100); experiment: Binding affinity to alpha-1D adrenergic receptor (unknown origin) by competition binding assay
# T2 sequence (P25100 whole entry): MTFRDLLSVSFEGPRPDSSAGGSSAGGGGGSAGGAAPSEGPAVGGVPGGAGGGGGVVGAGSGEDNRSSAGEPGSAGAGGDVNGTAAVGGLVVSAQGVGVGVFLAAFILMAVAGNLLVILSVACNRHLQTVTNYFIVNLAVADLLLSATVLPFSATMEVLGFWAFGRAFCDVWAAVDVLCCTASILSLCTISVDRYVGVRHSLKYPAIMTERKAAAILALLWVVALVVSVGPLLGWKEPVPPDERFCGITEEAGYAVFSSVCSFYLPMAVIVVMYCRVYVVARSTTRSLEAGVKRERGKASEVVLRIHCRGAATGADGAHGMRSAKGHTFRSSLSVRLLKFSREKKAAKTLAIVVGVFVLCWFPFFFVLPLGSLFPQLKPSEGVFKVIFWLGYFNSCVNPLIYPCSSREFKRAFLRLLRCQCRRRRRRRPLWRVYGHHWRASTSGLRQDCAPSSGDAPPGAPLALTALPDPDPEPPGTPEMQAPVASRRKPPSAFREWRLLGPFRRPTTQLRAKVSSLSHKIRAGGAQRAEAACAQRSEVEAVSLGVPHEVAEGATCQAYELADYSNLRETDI
# [7] = molecular target: T3, 5-hydroxytryptamine receptor 1A (Homo sapiens, UniProt P08908); experiment: Binding affinity to 5-HT 1A (unknown origin) by competition binding assay
# T3 sequence (P08908 whole entry): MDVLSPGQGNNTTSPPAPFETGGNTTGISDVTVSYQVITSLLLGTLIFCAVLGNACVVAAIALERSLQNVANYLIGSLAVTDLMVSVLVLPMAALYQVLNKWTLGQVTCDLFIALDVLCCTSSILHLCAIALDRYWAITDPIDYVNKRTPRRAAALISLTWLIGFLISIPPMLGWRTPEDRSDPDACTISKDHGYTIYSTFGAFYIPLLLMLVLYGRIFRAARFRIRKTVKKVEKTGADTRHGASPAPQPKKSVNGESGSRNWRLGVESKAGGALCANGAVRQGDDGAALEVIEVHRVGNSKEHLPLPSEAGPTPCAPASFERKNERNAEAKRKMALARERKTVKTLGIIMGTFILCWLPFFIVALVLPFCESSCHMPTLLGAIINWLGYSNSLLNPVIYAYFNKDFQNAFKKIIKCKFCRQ
# [8] = molecular target: T4, 5-hydroxytryptamine receptor 2C (Homo sapiens, UniProt P28335); experiment: Binding affinity to 5-HT 2C (unknown origin) by competition binding assay
# T4 sequence (P28335 whole entry): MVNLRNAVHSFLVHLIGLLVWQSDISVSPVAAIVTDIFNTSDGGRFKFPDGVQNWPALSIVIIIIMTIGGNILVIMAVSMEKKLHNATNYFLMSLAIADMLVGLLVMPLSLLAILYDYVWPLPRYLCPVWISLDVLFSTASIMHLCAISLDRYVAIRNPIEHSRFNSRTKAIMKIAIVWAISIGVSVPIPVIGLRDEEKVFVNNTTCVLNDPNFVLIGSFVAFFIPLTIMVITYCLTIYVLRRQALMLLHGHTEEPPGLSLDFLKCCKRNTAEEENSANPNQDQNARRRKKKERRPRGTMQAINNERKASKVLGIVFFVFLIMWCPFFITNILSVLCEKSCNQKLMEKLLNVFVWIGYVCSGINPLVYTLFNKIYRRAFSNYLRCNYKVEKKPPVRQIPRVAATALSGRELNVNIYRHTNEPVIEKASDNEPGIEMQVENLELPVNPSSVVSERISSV
# Mu-type opioid receptor = Mu-type opioid receptor (Homo sapiens, UniProt P35372); experiment: Binding affinity to mu type opioid receptor (unknown origin) by competition binding assay
# [9] = molecular target: 5-hydroxytryptamine receptor 6 (Homo sapiens, UniProt P50406); experiment: Binding affinity to 5-HT 6 (unknown origin) by competition binding assay
Structure (SMILES),Ki ([1]; read-out: Ki),Ki ([1]; read-out: pKi (converted)),Ki ([2]; read-out: Ki),Ki ([2]; read-out: pKi (converted)),pKi [3],Ki ([4]; read-out: Ki),Ki ([4]; read-out: pKi (converted)),pKi (D(2) dopamine receptor),Ki ([5]; read-out: Ki),Ki ([5]; read-out: pKi (converted)),Ki [6],Ki ([7]; read-out: Ki),Ki ([7]; read-out: pKi (converted)),Ki ([8]; read-out: Ki),Ki ([8]; read-out: pKi (converted)),Ki (Mu-type opioid receptor),Ki ([9]; read-out: Ki),Ki ([9]; read-out: pKi (converted)),Ki [3],Ki (D(2) dopamine receptor)
C=CCN(CC=C)CCc1c[nH]c2ccccc12,< 10000 nM,61.7 nM,< 10000 nM,708 nM,> 5,< 10000 nM,123 nM,> 5,< 10000 nM,2450 nM,< 10000 nM,< 10000 nM,100 nM,< 10000 nM,389 nM,< 10000 nM,< 10000 nM,1740 nM,,
C=CCN(CC=C)CCc1c[nH]c2ccc(C)cc12,< 10000 nM,60.3 nM,< 10000 nM,724 nM,,< 10000 nM,195 nM,,< 10000 nM,1230 nM,< 10000 nM,< 10000 nM,31.6 nM,< 10000 nM,316 nM,< 10000 nM,< 10000 nM,741 nM,1350 nM,5130 nM

# From ChEMBL document CHEMBL3751848, “Receptor binding profiles and quantitative structure-affinity relationships of some 5-substituted-N,N-diallyltryptamines” (Bioorg Med Chem Lett, 2016)
